The record followed here is patent US20230391763A1, “MODULATORS OF THE INTEGRATED STRESS RESPONSE PATHWAY” (Evotec International GmbH, priority 2020, published 2023).

This assay relates to Tunicamycin induced ISR (ATF4 signal ratio between nucleus and cytoplasm) in wild-type HEK293 cells. Put plainly: HEK-ATF4 High Content Imaging assay. The format is cell-based. As to conditions: Homo sapiens, prevention of Tunicamycin induced ISR, 6 h incubation, ATF4 immunofluorescence nucleus/cytoplasm ratio. The protocol: HEK-ATF4 High Content Imaging Assay
Example compounds were tested in the HEK-ATF4 High Content Imaging assay to assess their pharmacological potency to prevent Tunicamycin induced ISR. Wild-type HEK293 cells were plated in 384-well imaging assay plates at a density of 12,000 cells per well in growth medium (containing DMEM/F12, 10% FBS, 2 mM L-Glutamine, 100 U/mL Penicillin—100 μg/mL Streptomycin) and incubated at 37° C., 5% CO2. 24 h later, the medium was changed to 50 μL assay medium per well (DMEM/F12, 0.3% FBS, 2 mM L-Glutamine, 100 U/mL Penicillin—100 μg/mL Streptomycin). Example compounds were serially diluted in DMSO, spotted into intermediate plates and prediluted with assay medium containing 3.3 μM Tunicamycin to give an 11-fold excess of final assay concentration. In addition to the example compound testing area, the plates also contained multiples of control wells for assay normalization purposes, wells containing Tunicamycin but no example compounds (High control), as well as wells containing neither example compound nor Tunicamycin (Low control). The assay was started by transferring 5 μL from the intermediate plate into the assay plates, followed by incubation for 6 h at 37° C., 5% CO2. Subsequently, cells were fixed (4% PFA in PBS, 20 min at r.t.) and submitted to indirect ATF4 immunofluorescence staining (primary antibody rabbit anti ATF4, clone D4B8, Cell Signaling Technologies; secondary antibody Alexa Fluor 488 goat anti-rabbit IgG (H+L), Thermofisher Scientific). Nuclei were stained using Hoechst dye (Thermofisher Scientific), and plates were imaged on an Opera Phenix High Content imaging platform equipped with 405 nm and 488 nm excitation. Finally, images were analyzed using script based algorithms. The main readout HEK-ATF4 monitored the ATF4 signal ratio between nucleus and cytoplasm. Tunicamycin induced an increase in the overall ATF4 ratio signal, which was prevented by ISR modulating example compounds. In addition, HEK-CellCount readout was derived from counting the number of stained nuclei corresponding to healthy cells. This readout served as an internal toxicity control.
A word on the IC50: it is the concentration needed to halve the response being measured. With `O=C(N[C@H]1CC[C@H](c2nnc(OCCOC(F)(F)F)o2)NC1)c1ccc2cc(C(F)(F)F)ccc2n1` [Example 2, N-[(3S,6R)-6-{5-[2-(trifluoromethoxy)ethoxy]-1,3,4-oxadiazol-2-yl}piperidin-3-yl]-6-(trifluoromethyl)quinoline-2-carboxamide], the concentration for half-maximal inhibition (IC50) is 1 to 500 nM.
Turning to `O=C(N[C@H]1CC[C@H](c2nnc(OCCOC(F)(F)F)o2)NC1)c1cnc2cc(Cl)ccc2c1` [Example 3, 7-chloro-N-[(3S,6R)-6-{5-[2-(trifluoromethoxy)ethoxy]-1,3,4-oxadiazol-2-yl}piperidin-3-yl]quinoline-3-carboxamide], the IC50 lay in the range of 1 to 500 nM.
Turning to `O=C(N[C@H]1CC[C@H](c2nnc(OCCOC(F)(F)F)o2)NC1)C1=Cc2ccc(Cl)cc2OC1` [Example 4, 7-chloro-N-[(3S,6R)-6-{5-[2-(trifluoromethoxy)ethoxy]-1,3,4-oxadiazol-2-yl}piperidin-3-yl]-2H-chromene-3-carboxamide], the IC50 was in the range of 1 to 500 nM.
As to `O=C(N[C@H]1CC[C@H](c2nnc(OCCOC(F)(F)F)o2)NC1)c1cc2ccc(Cl)cc2cn1` [Example 5, 7-chloro-N-[(3S,6R)-6-{5-[2-(trifluoromethoxy)ethoxy]-1,3,4-oxadiazol-2-yl}piperidin-3-yl]isoquinoline-3-carboxamide], the IC50 was in the range of 500 to 2000 nM.
Consider `O=C(N[C@H]1CC[C@H](c2nnc(OCCOC(F)(F)F)o2)NC1)c1ncc2cc(Cl)ccc2n1` [Example 6, 6-chloro-N-[(3S,6R)-6-{5-[2-(trifluoromethoxy)ethoxy]-1,3,4-oxadiazol-2-yl}piperidin-3-yl]quinazoline-2-carboxamide], for which the half-inhibitory concentration (IC50) lay within 1 to 500 nM.
For the molecule `O=C(N[C@H]1CC[C@H](c2nnc(OCCOC(F)(F)F)o2)NC1)c1cnc2ccc(Cl)cc2c1` [Example 8, 6-chloro-N-[(3S,6R)-6-{5-[2-(trifluoromethoxy)ethoxy]-1,3,4-oxadiazol-2-yl}piperidin-3-yl]quinoline-3-carboxamide], the IC50 was 1 to 500 nM.
On to `O=C(N[C@H]1CC[C@H](c2nnc(OCCOC(F)(F)F)o2)NC1)c1cc2cc(Cl)ccc2o1` [Example 9, 5-chloro-N-[(3S,6R)-6-{5-[2-(trifluoromethoxy)ethoxy]-1,3,4-oxadiazol-2-yl}piperidin-3-yl]-1-benzofuran-2-carboxamide], for which the IC50 is 1 to 500 nM.
As for `O=C(N[C@H]1CC[C@H](c2nnc(OCCOC(F)(F)F)o2)NC1)c1ccc2cc(Cl)cnc2c1` [Example 10, 3-chloro-N-[(3S,6R)-6-{5-[2-(trifluoromethoxy)ethoxy]-1,3,4-oxadiazol-2-yl}piperidin-3-yl]quinoline-7-carboxamide], the IC50 fell in the range of 500 to 2000 nM.
Consider `O=C(N[C@H]1CC[C@H](c2nnc(OCCOC(F)(F)F)o2)NC1)c1cnc2cc(Cl)c(F)cc2c1` [Example 11, 7-chloro-6-fluoro-N-[(3S,6R)-6-{5-[2-(trifluoromethoxy)ethoxy]-1,3,4-oxadiazol-2-yl}piperidin-3-yl]quinoline-3-carboxamide], for which the IC50 was 1 to 500 nM.
Turning to `O=C(N[C@H]1CC[C@H](c2nnc(OCCOC(F)(F)F)o2)NC1)c1cc2cc(Cl)ccn2n1` [Example 12, 5-chloro-N-[(3S,6R)-6-{5-[2-(trifluoromethoxy)ethoxy]-1,3,4-oxadiazol-2-yl}piperidin-3-yl]pyrazolo[1,5-a]pyridine-2-carboxamide], the IC50 lay within 500 to 2000 nM.
Regarding `O=C(N[C@H]1CC[C@H](c2nnc(OCCOC(F)(F)F)o2)NC1)c1ccc(OCC(F)(F)F)nc1` [Example 13, 6-(2,2,2-trifluoroethoxy)-N-[(3S,6R)-6-{5-[2-(trifluoromethoxy)ethoxy]-1,3,4-oxadiazol-2-yl}piperidin-3-yl]pyridine-3-carboxamide], the 50% inhibitory concentration (IC50) lay in the range of 2000 to 15000 nM.
On to `O=C(N[C@H]1CC[C@H](c2nnc(OCCOC(F)(F)F)o2)NC1)c1ccc2nc(C(F)(F)F)ccc2c1` [Example 14, N-[(3S,6R)-6-{5-[2-(trifluoromethoxy)ethoxy]-1,3,4-oxadiazol-2-yl}piperidin-3-yl]-2-(trifluoromethyl)quinoline-6-carboxamide], for which the IC50 is 2000 to 15000 nM.
